Reference: PubChem BioAssay (NCI)
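Results reflect a 48-hour exposure of cells in 96-well plates to compound at five concentrations. At the TGI there is no net growth.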

How the values were obtained:
Assay in all cases: NCI anticancer screen, dose series, 48 h
[1] = test system: BT-549 breast
[2] = test system: COLO 205 colon
[3] = test system: OVCAR-4 ovarian
[4] = test system: NCI/ADR-RES ovarian
[5] = test system: SNB-19 CNS
[6] = test system: SK-MEL-5 melanoma
[7] = test system: IGROV1 ovarian
[8] = test system: MOLT-4 leukemia
[9] = test system: EKVX NSCLC
[10] = test system: HOP-62 NSCLC
[11] = test system: DU-145 prostate
[12] = test system: UO-31 renal
[13] = test system: SF-539 CNS
[14] = test system: NCI-H522 lung
[15] = test system: UACC-257 melanoma
[16] = test system: TK-10 renal
[17] = test system: 786-0 renal
[18] = test system: U251 CNS
[19] = test system: HOP-92 NSCLC
[20] = test system: SW-620 colon

SMILES | TGI [1] | TGI [2] | TGI [3] | TGI [4] | TGI [5] | TGI [6] | TGI [7] | TGI [8] | TGI [9] | TGI [10] | TGI [11] | TGI [12] | TGI [13] | TGI [14] | TGI [15] | TGI [16] | TGI [17] | TGI [18] | TGI [19] | TGI [20]
CC(=O)Oc1c2c(c(CC=C(C)C)c3c1C(=O)C1=C[C@@H]4CC5C(C)(C)OC(C/C=C(/C)C(=O)O)(C4=O)[C@@]15O3)OC(C)(CCC=C(C)C)C=C2 (stereo partly drawn) | 0.461 µM | 0.421 µM | 0.567 µM | 2.7 µM | 1.38 µM | 0.737 µM | 0.294 µM | 32 µM | 0.839 µM | 1.88 µM | 0.838 µM | 0.526 µM | 0.252 µM | 0.281 µM | 1.36 µM | 0.585 µM | 0.364 µM | 0.339 µM | 1.05 µM | 0.241 µM
Cn1cc(S(=O)(=O)NC(=O)Nc2ccc(Cl)cc2)c2ccccc21 | > 100 µM | > 100 µM | > 100 µM | > 100 µM | > 100 µM | > 100 µM | > 100 µM | > 100 µM | > 100 µM | > 100 µM | > 100 µM | > 100 µM | > 100 µM | 69.3 µM | > 100 µM | 55.2 µM | > 100 µM | > 100 µM | > 100 µM | > 100 µM
COC(=O)c1c2c(cc3c1CC1(C3)Cc3cc4c(c(C(C)=O)c3C1)CCC4)C=CC2 (stereo not drawn) | > 31.6 µM | > 31.6 µM | > 31.6 µM | > 31.6 µM | > 31.6 µM | > 31.6 µM | > 31.6 µM | > 31.6 µM | > 31.6 µM | > 31.6 µM | > 31.6 µM | > 31.6 µM | > 31.6 µM | > 31.6 µM | > 31.6 µM | > 31.6 µM | > 31.6 µM | > 31.6 µM | > 31.6 µM | –
CCN1C(=O)/C(=C2\SC(c3ccccc3)(c3ccccc3)c3ccccc32)SC1=S | > 100 µM | > 100 µM | > 100 µM | > 100 µM | > 100 µM | > 100 µM | > 100 µM | > 100 µM | > 100 µM | 68.1 µM | > 100 µM | > 100 µM | > 100 µM | > 100 µM | > 100 µM | > 100 µM | > 100 µM | > 100 µM | 82.4 µM | –
COC(=O)[C@@]1(Cc2ccc(O)cc2)C[C@@H]2Cc3ccccc3N2N1 | > 100 µM | > 100 µM | > 100 µM | > 100 µM | > 100 µM | > 100 µM | > 100 µM | > 100 µM | > 100 µM | > 100 µM | > 100 µM | > 100 µM | > 100 µM | > 100 µM | 71.7 µM | > 100 µM | > 100 µM | > 100 µM | > 100 µM | > 100 µM
COc1cc2c(cc1OC)CN1CCCc3cc(OC)c(OC)cc3C1C2 (stereo not drawn) | > 100 µM | > 100 µM | > 100 µM | > 100 µM | > 100 µM | > 100 µM | > 100 µM | > 100 µM | > 100 µM | > 100 µM | > 100 µM | > 100 µM | 50.1 µM | > 100 µM | > 100 µM | > 100 µM | > 100 µM | > 100 µM | > 100 µM | > 100 µM
CC(C)(C)OC(=O)NCCC(=O)NC1(c2cc3ccccc3s2)CCCCC1 | 32.5 µM | 32.9 µM | 29.1 µM | 41.6 µM | 37.1 µM | 25.9 µM | 36.5 µM | 28.5 µM | 50.6 µM | 35.3 µM | 33.6 µM | 30.5 µM | 29.2 µM | 26.2 µM | 39 µM | 55.4 µM | 35.7 µM | 37.7 µM | 33.7 µM | 41.1 µM
O=C(O)CC1NC(/C(=C/c2ccccc2O)NC(=O)c2ccccc2)OC1=O (stereo not drawn) | 52 µM | > 100 µM | > 38.2 µM | > 100 µM | 49.5 µM | > 100 µM | > 70.9 µM | > 100 µM | > 100 µM | 29.5 µM | > 100 µM | > 63.6 µM | 66.9 µM | > 100 µM | > 100 µM | > 100 µM | > 100 µM | > 80.8 µM | > 100 µM | > 100 µM
COc1ccc(/C=C/C(=N/NC(=O)N/N=C(/C=C/c2ccc(OC)cc2)C(C)(C)CN2CCCCC2)C(C)(C)CN2CCCCC2)cc1 | 3.58 µM | 3.1 µM | 3.96 µM | 4.33 µM | 6.4 µM | 3.01 µM | 5.77 µM | 4.18 µM | > 10 µM | 3.93 µM | > 10 µM | 2.95 µM | 4.11 µM | 3.59 µM | 3.31 µM | 3.67 µM | 3.15 µM | 3.31 µM | 3.08 µM | 4.48 µM
COc1ccc(-c2nnc3n(Cc4ccccc4)c4ccccc4n3c2=O)cc1 | > 100 µM | > 100 µM | 43.6 µM | > 100 µM | 80 µM | > 100 µM | 63.7 µM | > 100 µM | > 100 µM | 12.2 µM | > 100 µM | > 100 µM | 34.3 µM | 80.7 µM | > 100 µM | 58.1 µM | 25.1 µM | 55 µM | 95 µM | > 100 µM
COc1ccc(P2(=S)SP(=S)(c3ccc(Cl)cc3)S2)cc1 (stereo not drawn) | > 100 µM | > 100 µM | > 100 µM | > 100 µM | > 100 µM | > 100 µM | > 100 µM | > 100 µM | > 100 µM | > 100 µM | > 100 µM | > 100 µM | > 100 µM | > 100 µM | > 100 µM | > 100 µM | > 100 µM | > 100 µM | > 100 µM | > 100 µM
COc1cccc2c3ccccc3c3nc[nH]c3c12 | > 100 µM | 36.1 µM | > 100 µM | > 100 µM | > 100 µM | 30.4 µM | > 100 µM | 28.4 µM | > 100 µM | > 100 µM | > 100 µM | > 100 µM | 52 µM | > 70.1 µM | > 63.8 µM | > 75.4 µM | > 57.9 µM | > 100 µM | 61.9 µM | > 71.2 µM
CCOC(=O)NC(C(=O)OCC)(N1CCN(c2cc3c(cc2F)c(=O)c(C(=O)O)cn3CC)CC1)C(F)(F)F (stereo not drawn) | > 100 µM | > 100 µM | > 100 µM | > 100 µM | > 100 µM | > 100 µM | > 100 µM | > 100 µM | 56.9 µM | > 100 µM | > 100 µM | > 100 µM | > 100 µM | > 100 µM | > 100 µM | > 100 µM | > 100 µM | > 100 µM | > 100 µM | > 100 µM
COC(=O)C(Cc1ccccc1)NP(=O)(O)OCC1OC(n2cc(I)c(=O)[nH]c2=O)CC1O (stereo not drawn) | > 100 µM | > 100 µM | > 100 µM | > 100 µM | > 100 µM | > 100 µM | > 100 µM | > 100 µM | > 100 µM | > 100 µM | > 100 µM | > 100 µM | > 100 µM | > 100 µM | > 100 µM | > 100 µM | > 100 µM | > 100 µM | > 100 µM | > 100 µM
Cc1cc(S(=O)(=O)NC2=NC(c3ccccc3)c3cc(Cl)ccc3N2)c(S)cc1Cl (stereo not drawn) | > 100 µM | > 100 µM | > 100 µM | > 100 µM | > 100 µM | > 100 µM | > 100 µM | > 100 µM | > 100 µM | > 100 µM | > 100 µM | 83.7 µM | > 100 µM | > 100 µM | > 100 µM | > 100 µM | > 100 µM | > 100 µM | > 100 µM | > 100 µM
CC(C)COC(=O)OC(=O)c1ccc(N(C)Cc2cnc3nc(N)nc(N)c3n2)cc1 | 97.8 µM | > 100 µM | > 100 µM | > 100 µM | > 100 µM | > 93.9 µM | > 100 µM | > 100 µM | > 100 µM | > 100 µM | > 100 µM | > 100 µM | > 51.8 µM | > 100 µM | > 100 µM | > 100 µM | > 100 µM | > 100 µM | > 100 µM | > 100 µM
CCOC(=O)CSc1nnc(CSc2nc(-c3ccccc3)c(-c3ccccc3)[nH]2)n1-c1ccccc1 | > 100 µM | > 100 µM | 48.3 µM | > 100 µM | > 100 µM | > 100 µM | > 100 µM | > 93.8 µM | > 100 µM | > 100 µM | 30.1 µM | 38.9 µM | 41.6 µM | > 100 µM | > 67.4 µM | 31.9 µM | > 62.9 µM | > 100 µM | > 100 µM | > 100 µM
Cc1cc(=O)[nH]c2cc(NC(=O)C(CCCN=C(N)N)NC(=O)OCc3ccccc3)ccc12 (stereo not drawn) | > 100 µM | > 100 µM | > 100 µM | > 100 µM | > 100 µM | > 100 µM | > 100 µM | > 100 µM | > 100 µM | > 100 µM | > 100 µM | > 100 µM | > 100 µM | > 100 µM | > 100 µM | > 100 µM | > 100 µM | > 100 µM | > 100 µM | > 100 µM
